Experiment [1] concerns the target PEG-3 (UniProt Q6IN02). The experiment is described as follows: inhibition of PEG-3 promoter-driven reporter – cell-based, HeLa, luciferase, CREF/GAPDH counter-screen panel, dose response (AID 624167). Particulars: HeLa PEG-Prom luciferase reporter, overnight, CREF/GAPDH counter-screens, mean of runs.
Experiment [2] concerns PEG-3. The description is as above. Particulars: HeLa PEG-Prom luciferase reporter, overnight, CREF/GAPDH counter-screens.
The mark [3] stands for this setting: run 1, dose range 1, individual replicate IC50 per panel.
Setting [4] is: run 2, dose range 1, individual replicate IC50 per panel.

Data on 51 compounds can be found in PubChem BioAssay AID624167 (Sanford-Burnham Center for Chemical Genomics, 2012).

Active and inactive are the calls of the source.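 How the source made its calls: active means mean IC50 for reducing PEG3 promoter reporter signal at or below a set limit, with IC50 above the limit in both counter screens; inactive means the rest, including counter screen hits.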 Where only a bound is given, the exact number is not on record here.

Chain of PEG-3 (UniProt Q6IN02) (Q6IN02 whole entry, looked up): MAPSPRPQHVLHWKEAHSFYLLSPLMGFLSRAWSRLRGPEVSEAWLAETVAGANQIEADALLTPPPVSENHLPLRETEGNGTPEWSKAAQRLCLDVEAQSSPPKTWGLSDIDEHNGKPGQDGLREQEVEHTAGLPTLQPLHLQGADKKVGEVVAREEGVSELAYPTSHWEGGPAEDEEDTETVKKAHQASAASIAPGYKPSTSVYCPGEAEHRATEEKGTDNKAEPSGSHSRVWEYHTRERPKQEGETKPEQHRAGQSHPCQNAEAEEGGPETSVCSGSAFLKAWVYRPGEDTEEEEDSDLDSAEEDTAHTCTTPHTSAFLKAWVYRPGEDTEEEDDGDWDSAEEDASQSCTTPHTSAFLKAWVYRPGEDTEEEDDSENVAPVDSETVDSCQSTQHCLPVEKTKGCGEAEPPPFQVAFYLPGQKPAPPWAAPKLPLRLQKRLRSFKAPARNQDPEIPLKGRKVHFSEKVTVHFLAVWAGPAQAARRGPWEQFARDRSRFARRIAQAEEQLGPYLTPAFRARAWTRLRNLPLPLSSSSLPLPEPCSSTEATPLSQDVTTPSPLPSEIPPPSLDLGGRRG

In the case of `CCOC(=O)c1ccc2ncc(C(=O)OCC)c(NCCN(C)C)c2c1`, the IC50 entry on PEG-3 [1] was “inactive”. For the same compound, the values for the IC50 in the experiment with PEG-3 [2] (setting [3]) and in the experiment on PEG-3 [2] (setting [4]) were 15 µM and 43.4 µM, respectively.
The corresponding values for `CCCN1CCc2c(sc(NC(=O)c3ccc(S(=O)(=O)N4CCN(C(=O)OCC)CC4)cc3)c2C(N)=O)C1` are “inactive”, 21.9 µM and 21.2 µM.
On to `CC(=O)c1cccc(NC(=O)c2cccc3c(-c4cccnc4)coc23)c1`, for which, at PEG-3 [1], the IC50 entry is “inactive”. In addition, the IC50 in the experiment with PEG-3 [2] (setting [3]) is 25.6 µM; in the experiment on PEG-3 [2] (setting [4]) it was greater than 100 µM.
The corresponding values for `CC(=O)Nc1cccc(-c2ccnc3c2CC(C)(C(=O)Nc2cccc(C(F)(F)F)c2)O3)c1` (stereo not drawn) are “inactive”, 5.21 µM and greater than 100 µM.
As for `CCn1cc(CN2CCC(C(=O)Nc3cccc(-c4cccc(Cl)c4)c3)CC2)cn1`, the IC50 was 16.8 µM on PEG-3 [1], 19.3 µM in the experiment with PEG-3 [2] (setting [3]) and 14.4 µM in the experiment on PEG-3 [2] (setting [4]).
The matching figures for `COc1cccc(Nc2nc(C(N)Cc3ccccc3)cs2)n1` (stereo not drawn): 18.2 µM, 20.4 µM and 15.9 µM.
The corresponding values for `COC(=O)c1ccccc1-c1ccc(/C=N/Nc2nc(N3CCCC3)nc(N3CCCC3)n2)o1` are “inactive”, 26.8 µM and 34.7 µM.
For `CCc1nc(Nc2ccc(N3CCN(C(C)=O)CC3)cc2)c2oc3ccccc3c2n1`, at PEG-3 [1], the IC50 entry is “inactive”. Besides, the figures for the IC50 in the experiment on PEG-3 [2] (setting [3]) and in the experiment on PEG-3 [2] (setting [4]) were 28.1 µM and 94.9 µM, respectively.
The corresponding values for `O=C1NC2C(=CC(O)C(O)C2O)c2cc3c(c(O)c21)OCO3` (stereo not drawn) are 0.293 µM, 0.293 µM and less than 0.2 µM.
The matching figures for `O=C(Sc1cccc2cccnc12)c1ccccc1Br`: 13.4 µM, 14 µM and 12.9 µM.
On to `Cc1c(C(=O)Nc2ccc(S(=O)(=O)N(C)C3CCN(C)CC3)cc2)oc2c(Cl)cccc12`, for which the IC50 on PEG-3 [1] is 12.8 µM; with PEG-3 [2] (setting [3]), 16.5 µM; with PEG-3 [2] (setting [4]) it was 9.1 µM.
The corresponding values for `CCOc1cc(/C=N/Nc2nc(-c3cccc(S(=O)(=O)N4CCCC4)c3)cs2)ccc1O` are “inactive”, 22.3 µM and 60.1 µM.
The matching figures for `COc1ccc(-c2cc(C(=O)N(C)Cc3cccc(OC)c3OC)c3ccccc3n2)cc1OC`: “inactive”, 12.7 µM and 71.2 µM.
The matching figures for `Cc1ccc(C(=O)NCCc2cccs2)cc1`: 12 µM, 3.98 µM and 20 µM.
For the compound `CC(C)(C)c1ccc(CN2N=Nc3ccccc3S2(=O)=O)cc1`, the IC50 result on PEG-3 [1] is “inactive”. Besides, the figures for the IC50 with PEG-3 [2] (setting [3]) and in the experiment on PEG-3 [2] (setting [4]) were 30.6 µM and 40.1 µM, respectively.
As to `O=Nc1c(O)ccc2cc(S(=O)(=O)O)ccc12`, the values for the IC50 at PEG-3 [1], in the experiment on PEG-3 [2] (setting [3]) and in the experiment with PEG-3 [2] (setting [4]) were 11.7 µM, 9.17 µM and 14.2 µM, respectively.
On to `CC1(C)CC(NCCN2CCN(C3=CC(=C(C#N)C#N)CC(C)(C)C3)CC2)=CC(=C(C#N)C#N)C1`, for which the IC50 result at PEG-3 [1] was “inactive”. The results for the IC50 with PEG-3 [2] (setting [3]) and with PEG-3 [2] (setting [4]) were greater than 100 µM and 8.4 µM, respectively.
On to `O=C(C[n+]1ccc(-c2cc(C(=O)Nc3cccc(C(F)(F)F)c3)c3ccccc3n2)cc1)c1cccc([N+](=O)[O-])c1`, for which the IC50 at PEG-3 [1] was 18.6 µM; in the experiment on PEG-3 [2] (setting [3]), 23.4 µM; in the experiment with PEG-3 [2] (setting [4]) it was 13.8 µM.
The corresponding values for `O=C(CSc1nc(Nc2ccccc2)nc(N2CCOCC2)n1)Nc1cc(Cl)ccc1O` are 13.7 µM, 13 µM and 14.5 µM.
The corresponding values for `CC(=O)N1CCN(c2cc(-c3ccccc3)nc3cc(-c4cccc(Cl)c4)nn23)CC1` are “inactive”, 23.8 µM and 18.3 µM.
`CCN(CC)CCN1CCN(c2cncc(-c3ccc4ccccc4c3)n2)CC1`: the IC50 result on PEG-3 [1] is “inactive”. Moreover, the IC50 in the experiment on PEG-3 [2] (setting [3]) amounted to 34.4 µM; with PEG-3 [2] (setting [4]), 11.9 µM.
The matching figures for `COCc1ccc(CN2CCC(C(=O)Nc3cccc(-c4cccc(Cl)c4)c3)CC2)o1`: 13.3 µM, 16.8 µM and 9.78 µM.
The matching figures for `CC(Cc1ccccc1)NCCC(c1ccccc1)c1ccccc1` (stereo not drawn): 19.5 µM, 19.9 µM and 19.1 µM.
The corresponding values for `COc1cc2ccccc2cc1C(=O)N(CCN(C)C)c1nc2c(OC)ccc(OC)c2s1` are “inactive”, 30.7 µM and 21.2 µM.
For the compound `CC(=O)Nc1cccc(-c2cc(NC=O)c3ncc(-c4ccc(C(C)=O)cc4)n3c2)c1`, the IC50 result on PEG-3 [1] is “inactive”. The IC50 in the experiment with PEG-3 [2] (setting [3]) is 6 µM; in the experiment with PEG-3 [2] (setting [4]), greater than 100 µM.
The corresponding values for `CCN(CCN(C)C)C(=O)C1CCN(S(=O)(=O)c2c(C)noc2/C=C/c2ccccc2F)CC1` are “inactive”, 28.2 µM and 21.4 µM.
The corresponding values for `Cc1ccc2[nH]c(=O)c(C3C(C#N)=C(N)Oc4c3ccc3cccnc43)cc2c1` (stereo not drawn) are “inactive”, 28.3 µM and 21.7 µM.
Regarding `COc1ccc(CCn2c(=N)c(C(=O)NC3CCCC3)cc3c(=O)n4cccc(C)c4nc32)cc1`, at PEG-3 [1], the IC50 result is “inactive”. In addition, the results for the IC50 in the experiment on PEG-3 [2] (setting [3]) and in the experiment with PEG-3 [2] (setting [4]) were 15.8 µM and 42.7 µM, respectively.
The matching figures for `CCN1CCN(c2ncc(C(=O)Nc3cc(Cl)ccc3OC)c3ccccc23)CC1`: “inactive”, 26.6 µM and 51.4 µM.
The matching figures for `CC(=O)NC(c1ccccc1)c1cc(Cl)c2cccnc2c1O` (stereo not drawn): 9.5 µM, 6.33 µM and 12.7 µM.
The matching figures for `O=C(CCCN1C(=O)/C(=C/c2cccc(Br)c2)SC1=S)Nc1cccnc1`: 13.6 µM, 15.1 µM and 12.1 µM.
Turning to `NC1=NC[C@H](Cc2ccccc2)N1CCc1cc(C(F)(F)F)cc(C(F)(F)F)c1`, the IC50 entry at PEG-3 [1] is “inactive”. Also, the IC50 with PEG-3 [2] (setting [3]) turned out to be 46.5 µM; in the experiment with PEG-3 [2] (setting [4]), 17.1 µM.
For `CC(=O)OC(C)(C)/C=C/C(=O)C(C)(O)C1[C@H](O)C[C@@]2(C)C3CC=C4C(CC[C@@H](O)C4(C)C)[C@]3(CO)C(=O)C[C@]12C` (stereo partly drawn), the IC50 result at PEG-3 [1] is “inactive”. In addition, the IC50 is 47 µM in the experiment on PEG-3 [2] (setting [3]) and less than 0.2 µM in the experiment with PEG-3 [2] (setting [4]).
The corresponding values for `Cc1cc(C)c2sc(N(CCCN(C)C)C(=O)c3ccc(S(=O)(=O)N4CCCc5ccccc54)cc3)nc2c1` are 14.7 µM, 20.7 µM and 8.73 µM.
Turning to `OC[C@@H]1[C@@H](c2ccc(Cl)cc2)C(c2cccc(Cl)c2)=NN1c1ccccc1`, on PEG-3 [1], the IC50 entry is “inactive”. Further, the IC50 was determined as 30.5 µM in the experiment on PEG-3 [2] (setting [3]) and 16.4 µM in the experiment on PEG-3 [2] (setting [4]).
The corresponding values for `CN1CCN(CCNC(=O)c2ccc3nc(-c4ccc(F)cc4)c(-c4ccc(F)cc4)nc3c2)CC1` are 15.4 µM, 19.4 µM and 11.3 µM.
The corresponding values for `Cc1cc(Cl)n2ncc(-c3ccccc3)c2n1` are “inactive”, 40.1 µM and greater than 100 µM.
Turning to `OC1(c2ccc(Cl)c(Cl)c2)C[n+]2ccccc2N1Cc1ccccc1` (stereo not drawn), the IC50 on PEG-3 [1] is 15.1 µM; with PEG-3 [2] (setting [3]), 16 µM; with PEG-3 [2] (setting [4]), 14.1 µM.
In the case of `CCN1C(=O)C(=Cc2cccc(OC)c2Oc2ccc([N+](=O)[O-])cc2[N+](=O)[O-])SC1=S`, the IC50 was > 100 µM (inactive) on PEG-3 [1], greater than 100 µM with PEG-3 [2] (setting [3]) and greater than 100 µM in the experiment on PEG-3 [2] (setting [4]).
On to `O/N=C(\c1ccc(Cl)cc1Cl)c1ncc(C(F)(F)F)cc1Cl`, for which, on PEG-3 [1], the IC50 entry is “inactive”. For the same compound, the IC50 in the experiment on PEG-3 [2] (setting [3]) is 32.4 µM; in the experiment on PEG-3 [2] (setting [4]), 29.9 µM.
The corresponding values for `COc1cc(/C=C/c2ccc3cccc(O)c3n2)ccc1O` are > 100 µM (inactive), greater than 100 µM and greater than 100 µM.
The corresponding values for `CN(C)CCCN(C(=O)c1ccc(S(=O)(=O)N(C)Cc2ccccc2)cc1)c1nc2cc3c(cc2s1)OCO3` are 16.4 µM, 19.3 µM and 13.6 µM.
On to `CCN(CC)CCNc1cccc2sc3ccccc3c(=O)c12`, for which the IC50 result at PEG-3 [1] was “inactive”. The half-inhibitory concentration (IC50) in the experiment on PEG-3 [2] (setting [3]) worked out at 18.3 µM; with PEG-3 [2] (setting [4]) it was 25.6 µM.
With `CC1(C)Cc2c(C#N)c(N3CCNCC3)nc(-c3ccco3)c2CS1`, the IC50 is 19.9 µM on PEG-3 [1], 22.7 µM with PEG-3 [2] (setting [3]) and 17.2 µM in the experiment on PEG-3 [2] (setting [4]).
The matching figures for `CC(=O)c1c(NCCc2ccccc2)nc(=S)n(-c2ccccc2)c1C`: 13.8 µM, 17.2 µM and 10.3 µM.
The matching figures for `NC(=O)c1nsc(C(=O)N(c2ccccc2F)C(C(=O)NCc2ccc(F)cc2)c2ccc(O)cc2)c1N` (stereo not drawn): “inactive”, 30.4 µM and 16.6 µM.
The matching figures for `Cc1ccc(C)c(OCC(O)CN2CCC(CN3C(=O)c4cccc5cccc(c45)C3=O)CC2)c1` (stereo not drawn): 17.2 µM, 18.4 µM and 15.9 µM.
Regarding `CCCCCCOc1ccc(/C(C)=N/NC2=NCCN2)cc1`, the IC50 on PEG-3 [1] is 11.9 µM; in the experiment with PEG-3 [2] (setting [3]) it was 15.7 µM; in the experiment on PEG-3 [2] (setting [4]), 8.2 µM.
Turning to `COc1ccc(-n2nnnc2C(C2CC2)N2CCC(n3c(=O)[nH]c4ccccc43)CC2)cc1` (stereo not drawn), the IC50 result at PEG-3 [1] is “inactive”. Also, the IC50 with PEG-3 [2] (setting [3]) is 58.3 µM; with PEG-3 [2] (setting [4]) it was 14.7 µM.
The corresponding values for `Cc1c(C(=O)N2CCN(c3ccc(F)cc3)CC2)sc2ncnc(N3CCN(c4ccccn4)CC3)c12` are 13.7 µM, 11.9 µM and 15.6 µM.
The corresponding values for `CCCCNc1nc(=S)n(-c2ccccc2)c(C)c1C(C)=O` are 17.3 µM, 22 µM and 12.6 µM.
